Source: PubChem BioAssay AID1259411 (Chemical Carcinogenesis Research Information System (CCRIS), 2018)
Calls of active or inactive are those of the source. How the calls were made is not given here.

Tested on: rodent carcinogenicity bioassays, tumor incidence
Test: CCRIS carcinogenicity studies
Procedure, shortened: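 NCI-built, expert-reviewed records of carcinogenicity and related test outcomes (mutagenicity, tumor promotion/inhibition) compiled from published and report sources, historical span 1985-2011, not updated.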

With `O=S1(=O)CCCO1` the carcinogen call (Species: MOUSE, Strain/Sex: ICR/FEMALE, Route: SUBCUTANEOUS, Dose: 0.3 MG IN WATER 1/WK FOR 63 WK, Tumor Site: Type of Lesion: INJECTION SITE: ADENOACANTHOMA, SARCOMA) was “active; positive”, the carcinogen call (Species: RAT, Strain/Sex: STRAIN-BD, Route: SUBCUTANEOUS, Dose: 15, 30 MG/KG IN ARACHIS OIL 1/WK FOR 1 YR, Tumor Site: Type of Lesion: INJECTION SITE: MYOSARCOMA, FIBROSARCOMA) was “active; positive” and the carcinogen call (Species: RAT, Strain/Sex: STRAIN-BD, Route: SUBCUTANEOUS, Dose: 15, 30 MG/KG IN WATER 1/WK FOR 1 YR, Tumor Site: Type of Lesion: INJECTION SITE: SARCOMA) was “active; positive”. For the same molecule, the carcinogen call (Species: RAT, Strain/Sex: STRAIN-CD/FEMALE, Route: GAVAGE, Dose: 28, 56 MG/KG IN WATER 2/WK FOR 78 WK (LOW DOSE) OR 32 WK (HIGH DOSE), Tumor Site: Type of Lesion: BRAIN (CEREBELLUM, CEREBRUM): MALIGNANT GLIOMA, MAMMARY GLAND: ADENOCARCINOMA) was “active; positive” and the carcinogen call (Species: RAT, Strain/Sex: STRAIN-CD/MALE, Route: GAVAGE, Dose: 28, 56 MG/KG IN WATER 2/WK FOR 78 WK (LOW DOSE) OR 32 WK (HIGH DOSE), Tumor Site: Type of Lesion: BRAIN (CEREBELLUM, CEREBRUM): MALIGNANT GLIOMA) was “active; positive”.
With `O=NN1CCNCC1` the carcinogen call (Species: RAT, Strain/Sex: F344/FEMALE, Route: INTRAVESICAL, Dose: 0, 3.8 G (TOTAL DOSE) INJECTED INTO BLADDER 2/WK OVER 48 WK (STUDY DURATION: 102 WK), Tumor Site: Type of Lesion: NASAL CAVITY: TUMOR, BLADDER: TUMOR) was “active; positive”.
In the case of `NNc1ccc(C(=O)O)cc1`, the carcinogen call (Species: MOUSE, Strain/Sex: STRAIN-A/FEMALE, Route: ORAL, Dose: 0, 1000 PPM IN DRINKING WATER FOR 26 WK (STUDY DURATION: 26 WK)) is reported as “inactive; negative”.
With `C=CCc1ccc(OC)cc1` the carcinogen call (Species: MOUSE, Strain/Sex: B6C3F1/MALE, Route: INTRAPERITONEAL, Dose: 0, 4.75 UMOL TOTAL DOSE, D 1,8,15 AND 22 AFTER BIRTH, AUTOPSIED AT 13-18 MO, Dose: 0, 4.75 UMOL TOTAL DOSE, D 1,8,15 AND 22 AFTER BIRTH, AUTOPSIED AT 13-18 MO, Tumor Site: Type of Lesion: LIVER: HEPATOMA) was “active; positive”, the carcinogen call (Species: MOUSE, Strain/Sex: C3H/MALE, Route: INTRAPERITONEAL, Dose: 0, 9.45 UMOL TOTAL DOSE, D 1,8,15 AND 22 AFTER BIRTH, AUTOPSIED AT 12 MO, Dose: 0, 9.45 UMOL TOTAL DOSE, D 1,8,15 AND 22 AFTER BIRTH, AUTOPSIED AT 12 MO, Tumor Site: Type of Lesion: LIVER: HEPATOMA) was “active; positive” and the carcinogen call (Species: MOUSE, Strain/Sex: CD-1/FEMALE, Route: ORAL, Dose: 0, 0.23, 0.46% IN DIET, FOR 12 MO, Dose: 0, 0.23, 0.46% IN DIET, FOR 12 MO, Tumor Site: Type of Lesion: LIVER: HEPATOMA) was “active; positive”. The carcinogen call (Species: MOUSE, Strain/Sex: CD-1/MALE,FEMALE, Route: GAVAGE, Dose: 0, 25 UMOL/G TOTAL DOSE, 2/WK FOR 5 WK BEGINNING ON D 4 AFTER BIRTH, AUTOPSIED AT 11-14 MO, Dose: 0, 25 UMOL/G TOTAL DOSE, 2/WK FOR 5 WK BEGINNING ON D 4 AFTER BIRTH, AUTOPSIED AT 11-14 MO, Tumor Site: Type of Lesion: LIVER: HEPATOMA) was “active; positive”, the carcinogen call (Species: MOUSE, Strain/Sex: CD-1/MALE, Route: SUBCUTANEOUS, Dose: 0, 0.17, 0.35 UMOL IN 0.025 ML TRIOCTANOIN WITHIN 24 HR AFTER BIRTH THEN 0, 0.47, 0.69 UMOL IN 0.05 ML TRIOCTANOIN ON D, Dose: 0, 0.17, 0.35 UMOL IN 0.025 ML TRIOCTANOIN WITHIN 24 HR AFTER BIRTH THEN 0, 0.47, 0.69 UMOL IN 0.05 ML TRIOCTANOIN ON D, Tumor Site: Type of Lesion: LIVER: HEPATOCELLULAR CARCINOMA) was “active; positive” and the carcinogen call (Species: MOUSE, Strain/Sex: CD-1/MALE, Route: SUBCUTANEOUS, Dose: 0, 4.43, 5.19 UMOL TOTAL DOSE, D 1,8,15 AND 22 AFTER BIRTH, Dose: 0, 4.43, 5.19 UMOL TOTAL DOSE, D 1,8,15 AND 22 AFTER BIRTH, Tumor Site: Type of Lesion: LIVER: HEPATOCELLULAR CARCINOMA) was “active; positive”. For the same molecule, the carcinogen call (Species: Mouse, Strain/Sex: ICR/Female (30 324 day survivors/Group), Route: Intraperitoneal injection, Dose: 150 mg/kg bw a wk for 17 wks, study duration 537 days, Tumor Site: Type of Lesion: Liver: Hepatocellular adenoma and carcinoma) was “active; positive (80% incidence). apparent lack of concurrent controls”.
In the case of `COC(=O)C1=CCCN(N=O)C1`, the carcinogen call (Species: RAT, Strain/Sex: F344/MALE, Route: ORAL, Dose: 0, 20 PPM IN DRINKING WATER FOR DURATION OF STUDY (TOTAL DOSE: 0; 4.1 MMOL/KG) (STUDY DURATION: 128 WK), Dose: 0, 20 PPM IN DRINKING WATER FOR DURATION OF STUDY (TOTAL DOSE: 0; 4.1 MMOL/KG) (STUDY DURATION: 128 WK), Tumor Site: Type of Lesion: EXOCRINE PANCREAS: ACINAR ADENOMA) is reported as “active; positive”.
`COc1cc(-c2ccc(N=C=O)c(OC)c2)ccc1N=C=O` was tested, and the carcinogen call (Species: MOUSE, Strain/Sex: B6C3F1/FEMALE, Route: ORAL, Dose: 0, 22000, 44000 PPM IN DIET FOR 78 WK (STUDY DURATION: 103 WK), Dose: 0, 22000, 44000 PPM IN DIET FOR 78 WK (STUDY DURATION: 103 WK)) was “inactive; negative”, the carcinogen call (Species: MOUSE, Strain/Sex: B6C3F1/MALE, Route: ORAL, Dose: 0, 22000, 44000 PPM IN DIET FOR 78 WK (STUDY DURATION: 103 WK), Dose: 0, 22000, 44000 PPM IN DIET FOR 78 WK (STUDY DURATION: 103 WK)) was “inactive; negative” and the carcinogen call (Species: RAT, Strain/Sex: F344/FEMALE, Route: GAVAGE, ORAL, Dose: 0, 1500, 3000 MG/KG FOR 22 WK, THEN 22000, 44000 PPM IN DIET FOR 56 WK (STUDY DURATION: 104 WK), Dose: 0, 1500, 3000 MG/KG FOR 22 WK, THEN 22000, 44000 PPM IN DIET FOR 56 WK (STUDY DURATION: 104 WK), Tumor Site: Type of Lesion: HEMATOPOIETIC SYSTEM (LEUKEMIA), UTERUS: ENDOMETRIAL STROMAL POLYP, EAR (ZYMBAL GLAND AND SKIN OF EAR): SQUAMOUS CELL CA, Tumor Site: Type of Lesion: HEMATOPOIETIC SYSTEM (LEUKEMIA), UTERUS: ENDOMETRIAL STROMAL POLYP, EAR (ZYMBAL GLAND AND SKIN OF EAR): SQUAMOUS CELL CA) was “active; positive”. For the same molecule, the carcinogen call (Species: RAT, Strain/Sex: F344/MALE, Route: GAVAGE, ORAL, Dose: 0, 1500, 3000 MG/KG FOR 22 WK, THEN 22000, 44000 PPM IN DIET FOR 56 WK (STUDY DURATION: 104 WK), Dose: 0, 1500, 3000 MG/KG FOR 22 WK, THEN 22000, 44000 PPM IN DIET FOR 56 WK (STUDY DURATION: 104 WK), Tumor Site: Type of Lesion: INTEGUMENTARY SYSTEM (SKIN (EXCLUDING SKIN OF EAR)): PAPILLOMA (NOS) OR BASAL CELL TUMOR OR TRICHOEPITHELIOMA OR SEBACEO) was “active; positive”.
In the case of `O.O=S(=O)([O-])[O-].[Mn+2]`, the carcinogen call (Species: MOUSE, Strain/Sex: B6C3F1/FEMALE, Route: ORAL, Dose: 0, 1500, 5000, 15000 PPM IN DIET (0; 60; 200; 615 MG/KG/D) FOR 105 WK (STUDY DURATION: 105 WK), Dose: 0, 1500, 5000, 15000 PPM IN DIET (0; 60; 200; 615 MG/KG/D) FOR 105 WK (STUDY DURATION: 105 WK), Tumor Site: Type of Lesion: THYROID GLAND (FOLLICULAR CELL): ADENOMA) is reported as “equivocal”, the carcinogen call (Species: MOUSE, Strain/Sex: B6C3F1/MALE, Route: ORAL, Dose: 0, 1500, 5000, 15000 PPM IN DIET (0; 60; 200; 615 MG/KG/D) FOR 105 WK (STUDY DURATION: 105 WK), Dose: 0, 1500, 5000, 15000 PPM IN DIET (0; 60; 200; 615 MG/KG/D) FOR 105 WK (STUDY DURATION: 105 WK), Tumor Site: Type of Lesion: THYROID GLAND (FOLLICULAR CELL): ADENOMA) is reported as “equivocal” and the carcinogen call (Species: RAT, Strain/Sex: F344/FEMALE, Route: ORAL, Dose: 0, 1500, 5000, 15000 PPM IN DIET (0; 70; 230; 715 MG/KG/D) FOR 2 YR (STUDY DURATION: 2 YR), Dose: 0, 1500, 5000, 15000 PPM IN DIET (0; 70; 230; 715 MG/KG/D) FOR 2 YR (STUDY DURATION: 2 YR)) is reported as “inactive; negative”. The carcinogen call (Species: RAT, Strain/Sex: F344/MALE, Route: ORAL, Dose: 0, 1500, 5000, 15000 PPM IN DIET (0; 60; 200; 615 MG/KG/D) FOR 2 YR (STUDY DURATION: 2 YR), Dose: 0, 1500, 5000, 15000 PPM IN DIET (0; 60; 200; 615 MG/KG/D) FOR 2 YR (STUDY DURATION: 2 YR)) was “inactive; negative”.
`CCC(C)OC(OC(C)CC)C(=O)c1ccccc1` (centres undefined) was tested, and the carcinogen call (Species: MOUSE, Strain/Sex: C3H/HEJ/MALE, Route: DERMAL, Dose: 0, 22.4 MG UNDILUTED 3/WK FOR LIFESPAN (STUDY DURATION: LIFESPAN)) was “inactive; negative”.
